Each molecule was assayed against T1, LRRK2(G2019S mutation, GST-LRRK2(amino acids 970-2527)) (Homo sapiens, UniProt Q5S007, G2019S) (assay: LRRK2 Km ATP LanthaScreen Assay). Details: Km ATP LanthaScreen Assay; LRRK2 G2019S; mean IC50 values; Examples 185-215; read-out: LRRK2 IC5).
T1 construct: GST-LRRK2(amino acids 970-2527); GST (N); purchased Life Technologies Corporation
Assay type: biochemical
How it was run: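 IC50 values are means of several runs in the Km-ATP LanthaScreen format, analysed by curve fitting of the LanthaScreen read-out.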

T1 sequence (Q5S007 970-2527 G2019S): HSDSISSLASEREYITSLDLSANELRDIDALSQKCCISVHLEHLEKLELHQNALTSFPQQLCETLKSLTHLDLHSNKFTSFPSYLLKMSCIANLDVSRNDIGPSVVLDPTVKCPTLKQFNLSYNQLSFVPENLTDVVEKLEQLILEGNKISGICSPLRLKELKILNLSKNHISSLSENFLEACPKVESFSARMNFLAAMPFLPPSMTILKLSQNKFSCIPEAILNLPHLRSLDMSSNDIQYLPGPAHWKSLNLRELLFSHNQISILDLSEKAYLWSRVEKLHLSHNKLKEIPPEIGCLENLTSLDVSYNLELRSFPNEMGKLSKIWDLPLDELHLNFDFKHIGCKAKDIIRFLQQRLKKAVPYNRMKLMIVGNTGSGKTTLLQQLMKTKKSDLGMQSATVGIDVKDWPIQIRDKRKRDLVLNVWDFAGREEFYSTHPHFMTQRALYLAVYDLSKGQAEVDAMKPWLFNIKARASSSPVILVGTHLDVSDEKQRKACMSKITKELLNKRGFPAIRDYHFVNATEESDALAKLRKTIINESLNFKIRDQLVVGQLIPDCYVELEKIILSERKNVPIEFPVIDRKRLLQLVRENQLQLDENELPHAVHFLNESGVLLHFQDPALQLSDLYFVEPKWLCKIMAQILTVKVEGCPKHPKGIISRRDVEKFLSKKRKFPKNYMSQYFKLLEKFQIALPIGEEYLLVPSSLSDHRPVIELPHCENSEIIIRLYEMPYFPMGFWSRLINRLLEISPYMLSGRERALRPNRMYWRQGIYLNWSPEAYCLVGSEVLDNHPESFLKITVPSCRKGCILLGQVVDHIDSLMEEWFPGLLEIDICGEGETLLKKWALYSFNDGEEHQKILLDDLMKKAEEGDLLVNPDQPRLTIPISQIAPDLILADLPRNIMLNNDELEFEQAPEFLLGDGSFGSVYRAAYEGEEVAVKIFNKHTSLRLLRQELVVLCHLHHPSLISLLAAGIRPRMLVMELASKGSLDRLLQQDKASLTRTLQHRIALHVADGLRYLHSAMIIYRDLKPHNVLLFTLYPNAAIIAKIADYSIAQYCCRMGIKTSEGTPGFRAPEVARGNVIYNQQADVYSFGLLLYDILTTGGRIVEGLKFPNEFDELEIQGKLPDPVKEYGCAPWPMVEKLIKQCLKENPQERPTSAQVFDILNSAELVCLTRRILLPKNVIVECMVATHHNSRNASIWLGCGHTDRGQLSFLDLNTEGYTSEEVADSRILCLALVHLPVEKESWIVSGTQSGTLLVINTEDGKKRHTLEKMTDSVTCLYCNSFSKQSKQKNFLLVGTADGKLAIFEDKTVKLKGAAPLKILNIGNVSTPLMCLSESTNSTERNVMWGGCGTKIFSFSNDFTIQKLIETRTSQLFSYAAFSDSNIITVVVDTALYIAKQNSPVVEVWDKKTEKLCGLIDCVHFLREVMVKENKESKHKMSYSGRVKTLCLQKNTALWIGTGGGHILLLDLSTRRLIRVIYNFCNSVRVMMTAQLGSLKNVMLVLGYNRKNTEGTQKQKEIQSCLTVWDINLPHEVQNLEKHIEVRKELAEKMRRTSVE

| SMILES | IC50 [nM] |
| --- | --- |
| CC(C)Oc1ccc2[nH]nc(-c3ccnc(N4CCN(c5ccccn5)CC4)c3)c2c1 [Example 200] | 10.9 |
| CC(C)Oc1ccc2[nH]nc(-c3ccnc(N4CCC(n5cncn5)CC4)c3)c2c1 [Example 187] | 4 |
| CC(C)Oc1ccc2[nH]nc(-c3ccnc(N4Cc5cccnc5C4)c3)c2c1 [Example 208] | 17.5 |
| CC(C)Oc1ccc2[nH]nc(-c3ccnc(N4CCS(=O)(=O)c5ccccc5C4)c3)c2c1 [Example 186] | 154 |
| CCc1nnc2n1CCN(c1cc(-c3n[nH]c4ccc(OC(C)C)cc34)ccn1)C2 [Example 195] | 7.2 |

Same assay, conditions: Km ATP LanthaScreen Assay; LRRK2 G2019S; mean IC50 values; read-out: LRRK2 IC50

| SMILES | IC50 [nM] |
| --- | --- |
| CC(C)Oc1ccc2[nH]nc(-c3ccnc(NC(=O)c4ccc5c(c4)C(=O)NC5)c3)c2c1 [Example 145] | 52 |
| COC1CN(Cc2ccc3[nH]nc(-c4ccnc(N5CCOCC5)c4)c3c2)C1 [Example 91] | 161 |
| N#CC1(c2ccccc2)CCN(c2cc(-c3n[nH]c4ccccc34)ccn2)CC1 [Example 14] | 67 |
| OCCC1CN(c2cc(-c3n[nH]c4ccccc34)ccn2)CCO1 (centres unmarked) [Example 66] | 15 |
| c1ccc2c(-c3ccnc(NCCCn4ccnc4)c3)n[nH]c2c1 [Example 42] | 31 |
| CCOc1ccc2[nH]nc(-c3ccnc(N4CCC(n5cccn5)CC4)c3)c2c1 [Example 218] | 14.4 |
| FC(F)(F)Oc1ccc2[nH]nc(-c3ccnc(N4CCN(c5ncccn5)CC4)c3)c2c1 [Example 235] | 476 |
| CN1CCC2(CCN(c3cc(-c4n[nH]c5ccccc45)ccn3)C2)C1 (centres unmarked) [Example 34] | 22 |
| CC(C)Oc1ccc2[nH]nc(-c3ccnc(N4C5CCCC4CC5)c3)c2c1 [Example 179] | 17.7 |
| c1ccc2c(-c3ccnc(N4CCC(N5CCOCC5)CC4)c3)n[nH]c2c1 [Example 27] | 32 |
| CC(C)Oc1ccc2[nH]nc(-c3ccnc(N4C[C@H](F)[C@@H](F)C4)c3)c2c1 [Example 174] | 6.6 |
| COC1CN(c2cc(-c3n[nH]c4ccc(OC(C)C)cc34)ccn2)C1 [Example 183] | 5.3 |
| FC(F)(F)Oc1ccc2[nH]nc(-c3ccnc(N4CC(n5cccn5)C4)c3)c2c1 [Example 241] | 315 |
| CCOc1ccc2[nH]nc(-c3ccnc(N4CCn5ccnc5C4)c3)c2c1 [Example 226] | 18.9 |
| CC(C)Oc1ccc2[nH]nc(-c3ccnc(NC(=O)c4cc(F)cc(F)c4)c3)c2c1 [Example 169] | 169 |
| CN(C)Cc1ccc2[nH]nc(-c3ccnc(N4CCOCC4)c3)c2c1 [Example 89] | 35 |
| CN1CCN(c2cc(-c3n[nH]c4ccccc34)ccn2)CC1 [Example 8] | 42 |
| c1ccc2c(-c3ccnc(N4CCN(Cc5ccncc5)CC4)c3)n[nH]c2c1 [Example 19] | 18 |

| SMILES | IC50 [nM] |
| --- | --- |
| CC(O)c1ccc2[nH]nc(-c3ccnc(N4CCOC(CCO)C4)c3)c2c1 (centres unmarked) [Example 127] | 17 |
| CC(C)Oc1ccc2[nH]nc(-c3ccnc(NC(=O)CC4CCC(=O)N4)c3)c2c1 (centres unmarked) [Example 165] | 23.4 |
| CC(C)Oc1ccc2[nH]nc(-c3ccnc(NC(=O)C(C)c4ccccc4)c3)c2c1 (centres unmarked) [Example 151] | 51.9 |
| CN(Cc1ccc2[nH]nc(-c3ccnc(N4CCOCC4)c3)c2c1)C1CCCC1 [Example 92] | 54 |
| FC1CCCN(c2cc(-c3n[nH]c4ccccc34)ccn2)C1 (centres unmarked) [Example 21] | 22 |
| CO[C@@H]1CCN(c2cc(-c3n[nH]c4ccc(OC(C)C)cc34)ccn2)C1 [Example 178] | 5 |
| CC(C)Oc1ccc2[nH]nc(-c3ccnc(N4CC(S(C)(=O)=O)C4)c3)c2c1 [Example 184] | 5.4 |
| CC1=NC2(CCCN(c3cc(-c4n[nH]c5ccccc45)ccn3)C2)C(=O)N1 (centres unmarked) [Example 60] | 202 |
| Oc1ccc2[nH]nc(-c3ccnc(N4CCCCC4)c3)c2c1 [Example 254] | 10.1 |
| CC(C)Oc1ccc2[nH]nc(-c3ccnc(N4CCc5ccccc5C4)c3)c2c1 [Example 139] | 18.1 |
| CCN(CC)CCNCc1ccc2[nH]nc(-c3ccnc(N4CCOCC4)c3)c2c1 [Example 95] | 273 |
| OC1(c2cccnc2)CCN(c2cc(-c3n[nH]c4ccccc34)ccn2)CC1 [Example 26] | 19 |
| COC1CCCN(c2cc(-c3n[nH]c4ccc(OC(C)C)cc34)ccn2)C1 (centres unmarked) [Example 138] | 11.4 |
| Cc1nc2c(o1)CCN(c1cc(-c3n[nH]c4ccc(OC(F)(F)F)cc34)ccn1)C2 [Example 251] | 431 |
| CN(C)CC1(O)CCN(c2cc(-c3n[nH]c4ccccc34)ccn2)CC1 [Example 56] | 25 |
| OC1(c2ccncc2)CCN(c2cc(-c3n[nH]c4ccccc34)ccn2)CC1 [Example 25] | 21 |
| c1ccc2c(-c3ccnc(N4CCC5(CC4)OCCO5)c3)n[nH]c2c1 [Example 15, 8-[4-(1H-indazol-3-yl)pyridin-2-yl]-1,4-dioxa-8-azaspiro[4.5]decane] | 36 |

Same assay, conditions: Km ATP LanthaScreen; mean IC50 of several tests; read-out: LRRK2 IC50

| SMILES | IC50 [nM] |
| --- | --- |
| COc1ccc(-c2ccc3[nH]nc(-c4ccnc(N5CCOCC5)c4)c3c2)cn1 [Ex 329] | 14 |
| CC(C)Oc1ccc2[nH]nc(-c3ccnc(NS(=O)(=O)C4CC4)c3)c2c1 [Example 259] | 63.2 |
| N#Cc1ccc2c(-c3ccnc(N4CCOCC4)c3)n[nH]c2c1 [Example 106] | 49 |
| c1cc(-c2n[nH]c3ccc(C4CC4)cc23)cc(N2CCOCC2)n1 [Example 387] | 6 |
| Cc1ncc(-c2ccc3[nH]nc(-c4ccnc(N5CC(F)C5)c4)c3c2)n1C [Example 307] | 2.1 |
| Cn1nccc1-c1ccc2[nH]nc(-c3ccnc(N4CCOCC4)c3)c2c1 [Example 345] | 18 |
| CC(C)(O)Cc1ccc2[nH]nc(-c3ccnc(N4CCOCC4)c3)c2c1 [Example 332] | 93 |
| c1cc(-c2n[nH]c3ccc(CNCC4CC4)cc23)cc(N2CCOCC2)n1 [Example 87] | 424 |
| CCCc1cnc(-c2ccc3[nH]nc(-c4ccnc(N5CCOCC5)c4)c3c2)nc1 [Example 335] | 5.4 |
| Cn1cc(-c2ccc3[nH]nc(-c4ccnc(N5CCCC5)c4)c3c2)cn1 [Example 267] | 2.9 |
| c1cc(-c2ccc3[nH]nc(-c4ccnc(N5CCOCC5)c4)c3c2)cc(N2CCOCC2)n1 [Example 399] | 74 |
| CS(=O)(=O)c1cccc(Nc2ccc3[nH]nc(-c4ccnc(N5CCOCC5)c4)c3c2)c1 [Example 108] | 9.3 |
| Fc1cnc(-c2ccc3[nH]nc(-c4ccnc(N5CCOCC5)c4)c3c2)nc1 [Example 337] | 42 |
| Oc1nccnc1-c1ccc2[nH]nc(-c3ccnc(N4CCOCC4)c3)c2c1 [Example 389] | < 0.6 |
| FCOc1ccc2[nH]nc(-c3ccnc(N4CCOCC4)c3)c2c1 [Example 85] | 10.2 |
| CC(C)(O)COc1ccc2[nH]nc(-c3ccnc(N4CCOCC4)c3)c2c1 [Example 348] | 14 |
| CC(C)Oc1ccc2[nH]nc(-c3ccnc(N4CCC(F)(F)CC4)c3)c2c1 [Example 287] | 14 |
| Cc1nnc(-c2ccc3[nH]nc(-c4ccnc(N5CCOCC5)c4)c3c2)o1 [Ex 342] | 0.61 |
| Cn1cc(-c2ccc3[nH]nc(-c4ccnc(N5CCOC6(CC6)C5)c4)c3c2)cn1 [Example 379] | 4.2 |
| O=S(=O)(c1ccc2[nH]nc(-c3ccnc(N4CCOCC4)c3)c2c1)C1CC1 [Example 370] | 18 |
| COc1ccc2c(-c3ccnc(N4CCOCC4)c3)n[nH]c2c1 [Example 105] | 30 |
| O=C(c1ccccc1)c1ccc2[nH]nc(-c3ccnc(N4CCOCC4)c3)c2c1 [Example 107] | 3.4 |
